Earlier results on one compound are cited in article PMC6544043 (ACS infectious diseases, 2019).

This series deals with adenosine/guanosine preferring nucleoside ribohydrolase (AGNH) (Trichomonas vaginalis, UniProt A2EYV3). The note with it: read-out: inhibitor potency; cited from earlier work.

Consider `OC[C@H]1O[C@@H](n2cnc3c(NC4CCCC4)nc(Cl)nc32)[C@H](O)[C@@H]1O` [2-chloro-N(6)-cyclopenty-ladenosine], for which the IC50 was 9 µM.
